Laboratory results taken from PMC8919667 (The Journal of Cell Biology, 2022).

T1: 6His-3FLAG-Cdc14 (Saccharomyces cerevisiae, UniProt Q00684)
T1 sequence (Q00684 1-551): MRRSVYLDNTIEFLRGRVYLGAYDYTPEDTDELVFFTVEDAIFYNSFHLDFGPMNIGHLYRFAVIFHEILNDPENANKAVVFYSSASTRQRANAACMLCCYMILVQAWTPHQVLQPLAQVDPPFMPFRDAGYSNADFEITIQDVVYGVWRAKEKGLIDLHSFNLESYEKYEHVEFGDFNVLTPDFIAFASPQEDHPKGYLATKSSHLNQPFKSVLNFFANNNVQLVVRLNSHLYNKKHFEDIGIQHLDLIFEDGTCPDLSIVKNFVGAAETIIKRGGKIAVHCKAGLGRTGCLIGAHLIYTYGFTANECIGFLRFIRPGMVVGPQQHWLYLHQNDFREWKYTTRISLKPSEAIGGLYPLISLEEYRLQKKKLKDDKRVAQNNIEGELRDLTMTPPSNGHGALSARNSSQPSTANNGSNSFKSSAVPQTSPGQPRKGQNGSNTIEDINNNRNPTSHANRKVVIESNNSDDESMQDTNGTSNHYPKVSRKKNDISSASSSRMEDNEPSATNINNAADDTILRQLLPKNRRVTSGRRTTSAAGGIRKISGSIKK

T2: 3HA-Atg13-p PxL2m (S. cerevisiae, UniProt Q06628 1-738, PxL2m (A207-IG), phosphorylated (Atg13-p); residues not stated)
T2 sequence (looked up): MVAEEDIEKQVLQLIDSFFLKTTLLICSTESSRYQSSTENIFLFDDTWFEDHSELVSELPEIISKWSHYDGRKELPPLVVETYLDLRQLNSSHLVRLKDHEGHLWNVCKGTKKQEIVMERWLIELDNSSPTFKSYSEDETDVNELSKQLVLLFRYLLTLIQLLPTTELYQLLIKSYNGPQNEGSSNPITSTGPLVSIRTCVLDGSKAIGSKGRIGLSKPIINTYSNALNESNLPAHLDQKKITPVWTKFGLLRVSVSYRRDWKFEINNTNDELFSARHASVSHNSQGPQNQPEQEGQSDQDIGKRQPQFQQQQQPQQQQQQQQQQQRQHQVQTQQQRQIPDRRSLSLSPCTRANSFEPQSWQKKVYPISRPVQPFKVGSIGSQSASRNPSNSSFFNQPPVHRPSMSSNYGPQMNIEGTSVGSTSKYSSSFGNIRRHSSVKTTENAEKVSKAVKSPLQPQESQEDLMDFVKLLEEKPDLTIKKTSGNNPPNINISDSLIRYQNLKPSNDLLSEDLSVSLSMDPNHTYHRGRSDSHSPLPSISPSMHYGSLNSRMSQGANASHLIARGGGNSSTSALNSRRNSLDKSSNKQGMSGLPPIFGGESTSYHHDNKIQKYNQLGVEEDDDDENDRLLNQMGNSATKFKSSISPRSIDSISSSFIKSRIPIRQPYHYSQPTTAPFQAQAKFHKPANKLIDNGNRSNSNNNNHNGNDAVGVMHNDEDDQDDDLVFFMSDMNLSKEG

B1: 6His-3FLAG-Cdc14-C283S (enzyme, S. cerevisiae, UniProt Q00684 1-551, looked up)
chain: MRRSVYLDNTIEFLRGRVYLGAYDYTPEDTDELVFFTVEDAIFYNSFHLDFGPMNIGHLYRFAVIFHEILNDPENANKAVVFYSSASTRQRANAACMLCCYMILVQAWTPHQVLQPLAQVDPPFMPFRDAGYSNADFEITIQDVVYGVWRAKEKGLIDLHSFNLESYEKYEHVEFGDFNVLTPDFIAFASPQEDHPKGYLATKSSHLNQPFKSVLNFFANNNVQLVVRLNSHLYNKKHFEDIGIQHLDLIFEDGTCPDLSIVKNFVGAAETIIKRGGKIAVHSKAGLGRTGCLIGAHLIYTYGFTANECIGFLRFIRPGMVVGPQQHWLYLHQNDFREWKYTTRISLKPSEAIGGLYPLISLEEYRLQKKKLKDDKRVAQNNIEGELRDLTMTPPSNGHGALSARNSSQPSTANNGSNSFKSSAVPQTSPGQPRKGQNGSNTIEDINNNRNPTSHANRKVVIESNNSDDESMQDTNGTSNHYPKVSRKKNDISSASSSRMEDNEPSATNINNAADDTILRQLLPKNRRVTSGRRTTSAAGGIRKISGSIKK

Experiments:
[1] = target: T1, 6His-3FLAG-Cdc14; test: colorimetric p-nitrophenolate release, absorbance at […] nm; format: biochemical; settings: 10 mM pNPP, 20 mM Tris pH 7.5, 4 mM MgCl2, 1 mM EGTA, room temperature
[2] = target: T2, 3HA-Atg13-p PxL2m; test: pull-down

| Molecule | colorimetric p-nitrophenolate release, absorbance at 405 nm [1] | binding result [2] |
| --- | --- | --- |
| O=[N+]([O-])c1ccc(OP(=O)(O)O)cc1 [p-nitrophenyl phosphate] | 6His-3FLAG-Cdc14 exhibited concentration- and time-dependent phosphatase activity | – |
| B1 | – | binds |
